System: human neutrophils
Assay: Insall chamber assay with DPPIV enzyme inhibitors, with or without rDPPIV
Format: cell-based
Conditions: FIG. 5; for chemorepulsion of neutrophils away from the source of rDPPIV: inhibitor added with rDPPIV, compared to rDPPIV alone; for attraction or repulsion of human neutrophils: inhibitor alone
Method: Cover slips were then washed twice with PBS, and neutrophils at approximately 5×10^6 cells/ml were allowed to adhere to the coverslip for 15 minutes at 37° C. Two concentric depressions and the separating bridge in an Insall chamber slide were filled with 2% (w/v) BSA-RPMI. The media was removed from the coverslips, which were then placed face down on the chamber. Media was then removed from the outer chamber and was replaced by rDPPIV alone, DPPIV inhibitor alone (Diprotin A, Enzo Life Sciences or DPPI 1 c hydrochloride, Tocris Bioscience (Bristol, UK)), rDPPIV plus DPPIV inhibitor (all in 2% (w/v) BSA-RPMI), or 2% (w/v) BSA-RPMI. Cells located on the bridge between the square depressions were then filmed using the methods of Ochsner, S. A., et al., Disrupted function of tumor necrosis factor-alpha-stimulated gene 6 blocks cumulus cell-oocyte complex expansion. Endocrinology, 2003. 144(10): p. 4376-84, incorporated in material part by reference herein, using a 10× objective for 1 hour at 37° C. in a humidified 5% CO2 incubator. The displacement of at least 10 randomly-chosen cells per experiment was measured over periods of 10 minutes. Cell tracking and track analysis were performed according to the methods of Phillips, J. E. and R. H. Gomer, A secreted protein is an endogenous chemorepellant in Dictyostelium discoideum. Proc Natl Acad Sci U S A, 2012. 109(27): p. 10990 - 10996, incorporated in material part by reference herein, with the exception that videos of an hour in length were processed into 10 minute segments to yield a TIFF stack of 47 images for analysis (with 13-second intervals between images).
DPPIV enzyme activity has been implicated in chemotaxis of hematopoietic stem cells through cleavage of SDF-1. To determine if DPPIV enzyme activity is responsible for neutrophil chemorepulsion, two enzyme inhibitors of DPPIV, Diprotin A and DPPI 1 c HCl, were used in Insall chamber assays along with DPPIV.

## CC[C@H](C)[C@H](N)C(=O)N1CCC[C@H]1C(=O)N[C@H](C(=O)O)[C@@H](C)CC [Diprotin A]
  chemorepulsion of neutrophils away from the source of rDPPIV: significantly reduced
  attraction or repulsion of human neutrophils: caused no attraction or repulsion

## Cl.N#C[C@@H]1CC[C@H](C#N)N1C(=O)CNC1(CO)CCCC1 [DPPI 1 c HCl, DPPI 1 c hydrochloride]
  chemorepulsion of neutrophils away from the source of rDPPIV: significantly reduced
  attraction or repulsion of human neutrophils: caused no attraction or repulsion

Reference: patent US20130039897A1, “COMPOSITIONS AND METHODS FOR REGULATING NEUTROPHIL MOVEMENT AND NEUTROPHIL NUMBERS IN A BODY REGION” (The Texas A&M University System, priority 2011, published 2013)
